Source: patent EP2582674B1 (Cymabay Therapeutics, Inc., priority 2010, dated 2011)

These compounds were tested against T1, human GPR120 (Homo sapiens, UniProt Q5NUL3) (assay: Intracellular Ca2+ assay in human GPR120 stable cell line (FLIPR Calcium 4 dye, Flexstation)). Conditions: HEK293, % activity at 2.5 µM compared to the maximal activity of the compound of Example 25 at 2.5 µM (=100%); HEK293 cells co-expressing Gqi5; read-out: % Activity (Ex. 25 Reference Compound).
T1 construct: host or cells: HEK293 cells co-expressing Gqi5
T1 sequence (Q5NUL3 1-361): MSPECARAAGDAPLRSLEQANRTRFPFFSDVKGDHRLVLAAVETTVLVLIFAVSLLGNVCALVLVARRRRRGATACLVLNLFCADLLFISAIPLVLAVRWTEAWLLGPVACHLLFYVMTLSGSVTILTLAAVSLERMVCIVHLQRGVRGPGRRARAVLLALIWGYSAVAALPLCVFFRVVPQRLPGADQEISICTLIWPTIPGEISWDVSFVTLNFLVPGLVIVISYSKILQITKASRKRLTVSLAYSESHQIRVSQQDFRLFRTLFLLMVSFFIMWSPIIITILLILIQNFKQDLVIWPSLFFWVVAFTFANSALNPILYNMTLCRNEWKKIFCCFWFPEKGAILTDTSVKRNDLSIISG
Format: cell-based
Method: Human GPR120 stable cell line was purchased from Multispan Inc (26219 Eden Landing Road, Hayward, CA94545). This GPR120 cell line was generated in HEK293 cells co-expressing Gqi5. In this cell line, the Flag epitope tag (DYKDDDDK) was fused to the amino terminus of human GPR120 protein.
The concentration of intracellular Ca^2+ was measured as described below. Human GPR120 cells were plated in 96 well plates (Poly-D-Lysine coated black/clear Plate, Greiner Bio-One) at 70,000 cells per well and cultured overnight in conditions of 37°C and 5% CO2. A Ca^2+ assay dye stock solution was prepared by adding 10 mL of assay buffer (HBSS/20mM HEPES, pH 7.4) to FLIPR Calcium 4 Assay Bulk Kit (Molecular Devices). The 10 mL of Ca^2+ assay dye solution was prepared by further diluting 0.5 mL of Ca^2+ assay dye stock solution with 10 mL of assay buffer. The medium of the cells was removed and immediately 100 µL of the Ca^2+ assay dye solution was dispensed into each well followed by incubation at 37°C and 5% CO2 for 50 minutes to incorporate the Ca^2+ dye into the cells. The cell plate was then placed in the Flexstation (Molecular Devices) for 20 minutes at 37°C. Compounds were dissolved in 100% DMSO and diluted to desired concentrations with assay buffer and placed in the Flexstation simultaneously with the cell plate for 20 minute incubation at 37°C prior to reading. Fluorescence intensity was measured immediately following compound addition (25 µL/well) on the Flexstation at an excitation wavelength of 485 nm and an emission wavelength of 525 with 515 nm auto cutoff. The resulting increase in fluorescence intensities corresponds to increases in intracellular Ca^2+ levels.
Compounds were dissolved in 100% DMSO to a concentration of 20 mM to provide stock solutions. To determine activity against human GPR120, compounds were added with human GPR120 stably expressing cells (described above), at eight desired concentrations ranging from 0.00001 to 20 µM, in 96 well plates and fluorescence intensities were measured for 90 seconds with 2-second intervals. An EC50 value (concentration of the GPR120 agonist where 50% of the agonist's maximal activity is observed) was calculated using the changes (Max-Min) of fluorescence intensity.
To determine percent activity for a tested compound, the fluorescence intensity value obtained at a particular concentration were compared to the maximal fluorescence intensity value obtained for reference compound GW9508 (4-[[(3-phenoxyphenyl)methyl]amino]benzene propanoic acid; British Journal of Pharmacology 2006 148, 619-628) or the compound of Example 25. When GW9508 was used as the reference compound, the maximal activity of GW9508 at 6.7µM was designated as 100% activity. When the compound of Example 25 was used as the reference compound, the maximal activity of the compound of Example 25 at 2.5 µM was designated as 100% activity. Typically, the GW9508 activity reached a maximum at a concentration of approximately 6.7 µM and typically the compound of Example 25 reached a maximum activity at approximately 2.5µM. […]

activity at 2.5 µM	SMILES
148%	COc1cc(OCc2cc(Cl)cc3c2OC2(CCCC2)C3)ccc1CCC(=O)O [Example 194, 3-(4-((5-chloro-3H-spiro[benzofuran-2,1'-cyclopentane]-7-yl)methoxy)-2-methoxyphenyl)propanoic acid]
146%	Cc1cc(CCC(=O)O)c(C)c(C)c1OCc1cc(F)cc2c1OC(C)(C)C2 [Example 254, 3-(4-((5-fluoro-2,2-dimethyl-2,3-dihydrobenzofuran-7-yl)methoxy)-2,3,5-trimethylphenyl) propanoic acid]
107%	CC1(C)Cc2cc(F)cc(COc3ccc4c(c3)CCCC4CC(=O)O)c2O1 (stereo not shown) [Example 153, 2-(6-((5-fluoro-2,2-dimethyl-2,3-dihydrobenzofuran-7-yl)methoxy)-1,2,3,4-tetrahydronaphthalen-1-yl)acetic acid]
32.6%	Cc1cc2c(OCc3cc(F)cc4c3OC(C)(C)C4)ccc(CCC(=O)O)c2o1 [Example 125, 3-(4-((5-fluoro-2,2-dimethyl-2,3-dihydrobenzofuran-7-yl)methoxy)-2-methylbenzofuran-7-yl)propanoic acid]
119%	CC(Cc1ccc(OCc2cc(Cl)cc3c2OC(C)(C)C3)c(CN(C)C)c1)C(=O)O (stereo not shown) [Example 88, 3-(4-((5-chloro-2,2-dimethyl-2,3-dihydrobenzofuran-7-yl)methoxy)-3-((dimethylamino)methyl)phenyl)-2-methylpropanoic acid]
115%	CC1(C)Cc2cc(Cl)cc(COc3ccc4c(c3)CC(C(=O)O)C4)c2O1 (stereo not shown) [Example 112, 5-((5-chloro-2,2-dimethyl-2,3-dihydrobenzofuran-7-yl)methoxy)-2,3-dihydro-1H-indene-2-carboxylic acid]
118%	CC1(C)Cc2cc(Cl)cc(COc3ccc(SCC(=O)O)cc3)c2O1 [Example 59, 2-((4-((5-chloro-2,2-dimethyl-2,3-dihydrobenzofuran-7-yl)methoxy)phenyl)thio)-acetic acid]
157%	CC(Cc1ccc(COc2cccc3c2OC(C)(C)C3)c(F)c1)C(=O)O (stereo not shown) [Example 44, 3-(4-(((2,2-dimethyl-2,3-dihydrobenzofuran-7-yl)oxy)methyl)-3-fluorophenyl)-2-methylpropanoic acid]
42.7%	CC(C)C(CC(=O)O)c1ccc(OCc2cc(Cl)cc3c2OC(C)(C)C3)cc1 (stereo not shown) [Example 266, 3-(4-((5-chloro-2,2-dimethyl-2,3-dihydrobenzofuran-7-yl)methoxy)phenyl)-4-methylpentanoic acid]
72.4%	CC(Cc1cc(F)c(OCc2cc(Cl)cc3c2OC(C)C3(C)C)c(F)c1)C(=O)O (stereo not shown) [Example 109, 3-(4-((5-chloro-2,3,3-trimethyl-2,3-dihydrobenzofuran-7-yl)methoxy)-3,5-difluorophenyl)-2-methylpropanoic acid]
114%	Cc1cc(OCc2cc(F)cc3c2OC(C)(C)C3)ccc1CCC(=O)O [Example 46, 3-(4-((5-fluoro-2,2-dimethyl-2,3-dihydrobenzofuran-7-yl)methoxy)-2-methylphenyl)propanoic acid]
109%	Cc1nc2cccc(COc3c(F)cc(CC(C)C(=O)O)cc3F)c2o1 (stereo not shown) [Example 261, 3-(3,5-difluoro-4-((2-methylbenzo[d]oxazol-7-yl)methoxy)phenyl)-2-methylpropanoic acid]
141%	CC(Cc1cc(F)c(OCc2c(F)c(F)cc3c2OC(C)(C)C3)c(F)c1)C(=O)O (stereo not shown) [Example 42, 3-(4-((5,6-difluoro-2,2-dimethyl-2,3-dihydrobenzofuran-7-yl)methoxy)-3,5-difluorophenyl)-2-methylpropanoic acid]
141%	[2H]C1([2H])c2cc(Cl)cc(COc3ccc(CC(C)C(=O)O)cc3F)c2OC1(C)C (stereo not shown) [Example 146, 3-(4-((3,3-dideuterio-5-chloro-2,2-dimethyl-2,3-dihydrobenzofuran-7-yl)methoxy)-3-fluorophenyl)-2-methylpropanoic acid]
75.9%	CC(Cc1ccc(OCc2cc(-n3cnnn3)cc3c2OC(C)(C)C3)cc1)C(=O)O (stereo not shown) [Example 90, 3-(4-((2,2-dimethyl-5-(1H-tetrazol-1-yl)-2,3-dihydrobenzofuran-7-yl)methoxy)phenyl)-2-methylpropanoic acid]

Same assay, conditions: HEK293, % activity at 5 µM compared to the maximal activity of GW9508 at 6.7 µM (=100%); HEK293 cells co-expressing Gqi5; read-out: %Activity (GW9508 Reference Compound)

activity at 5 µM	SMILES
134%	CC(Cc1ccc(OCc2ccc(F)c3c2OC(C)(C)C3)c(F)c1)C(=O)O (stereo not shown) [Example 29, 3-(3-fluoro-4-((4-fluoro-2,2-dimethyl-2,3-dihydrobenzofuran-7-yl)methoxy)phenyl)-2-methylpropanoic acid]
144%	CC1(C)Cc2c(F)ccc(COc3c(F)cc(C4CC4C(=O)O)cc3F)c2O1 (stereo not shown) [Example 27, 2-(3,5-difluoro-4-((4-fluoro-2,2-dimethyl-2,3-dihydrobenzofuran-7-yl)methoxy)phenyl)cyclopropanecarboxylic acid]
109%	COc1cc(CC(C)C(=O)O)ccc1OCc1cc(Cl)cc2c1OC(C)(C)C2 (stereo not shown) [Example 15, 3-(4-((5-chloro-2,2-dimethyl-2,3-dihydrobenzofuran-7-yl)methoxy)-3-methoxyphenyl)-2-methylpropanoic acid]
84.5%	CC(Cc1cc(Cl)c(OCc2cc(Cl)cc3c2OC(C)(C)C3)c(Cl)c1)C(=O)O (stereo not shown) [Example 14, 3-(3,5-dichloro-4-((5-chloro-2,2-dimethyl-2,3-dihydrobenzofuran-7-yl)methoxy)phenyl)-2-methylpropanoic acid]
130%	CC(Cc1cc(F)c(OCc2cc(F)cc3c2OC(C)(C)C3)c(F)c1)C(=O)O (stereo not shown) [Example 18, 3-(3,5-difluoro-4-((5-fluoro-2,2-dimethyl-2,3-dihydrobenzofuran-7-yl)methoxy)phenyl)-2-methylpropanoic acid]
143%	CC(Cc1cc(F)c(OCc2ccc(C(F)(F)F)c3c2OC(C)(C)C3)c(F)c1)C(=O)O (stereo not shown) [Example 32, 3-(4-((2,2-dimethyl-4-(trifluoromethyl)-2,3-dihydrobenzofuran-7-yl)methoxy)-3,5-difluorophenyl)-2-methylpropanoic acid]
143%	CC(Cc1ccc(OCc2ccc(C(F)(F)F)c3c2OC(C)(C)C3)c(F)c1)C(=O)O (stereo not shown) [Example 33, 3-(4-((2,2-dimethyl-4-(trifluoromethyl)-2,3-dihydrobenzofuran-7-yl)methoxy)-3-fluorophenyl)-2-methylpropanoic acid]
126%	CC1(C)Cc2cc(F)cc(COc3c(F)cc(C4CC4C(=O)O)cc3F)c2O1 (stereo not shown) [Example 19, 2-(3,5-difluoro-4-((5-fluoro-2,2-dimethyl-2,3-dihydrobenzofuran-7-yl)methoxy)phenyl)cyclopropanecarboxylic acid]
118%	CC(Cc1ccc(OCc2ccc(C(F)(F)F)c3c2OC(C)(C)C3)cc1)C(=O)O (stereo not shown) [Example 34, 3-(4-((2,2-dimethyl-4-(trifluoromethyl)-2,3-dihydrobenzofuran-7-yl)methoxy)phenyl)-2-methylpropanoic acid]

Same assay, conditions: eight concentrations from 0.00001 to 20 µM; changes (Max-Min) of fluorescence intensity

EC50	SMILES
> 10 µM	CC(Cc1ccc(OCc2c(F)c(F)cc3c2OC(C)(C)C3)cc1)C(=O)O (stereo not shown) [Example 43, 3-(4-((5,6-difluoro-2,2-dimethyl-2,3-dihydrobenzofuran-7-yl)methoxy)phenyl)-2-methylpropanoic acid]
1 to 10 µM	CC(Cc1ccc(COc2cccc3c2OC(C)(C)C3)c(F)c1)C(=O)O (stereo not shown) [Example 44, 3-(4-(((2,2-dimethyl-2,3-dihydrobenzofuran-7-yl)oxy)methyl)-3-fluorophenyl)-2-methylpropanoic acid]
1 to 10 µM	CC(Cc1cc(F)c(OCc2c(F)c(F)cc3c2OC(C)(C)C3)c(F)c1)C(=O)O (stereo not shown) [Example 42, 3-(4-((5,6-difluoro-2,2-dimethyl-2,3-dihydrobenzofuran-7-yl)methoxy)-3,5-difluorophenyl)-2-methylpropanoic acid]
> 10 µM	CC(Cc1ccc(OCc2ccc(C(F)(F)F)c3c2OC(C)(C)C3)cc1)C(=O)O (stereo not shown) [Example 34, 3-(4-((2,2-dimethyl-4-(trifluoromethyl)-2,3-dihydrobenzofuran-7-yl)methoxy)phenyl)-2-methylpropanoic acid]
